Several values for one entry are separate records, joined by “and”; a condition that tells them apart may be missing. Equal entries are not always repeated. Where two headings read alike, the source gives them in different places.
Legend:
Test in all cases: Chemosensitivity, 96 h continuous exposure, MTT assay
Assay type in all cases: cell-based, human
[1] = tested on: MCF10A non-cancer cells
How it was run: (§1)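 IC50 is the concentration giving 50% growth reduction, derived from dose-response curves of MTT absorbance at 540 nm. Before dosing, lines were plated at 2 × 10^3 cells/well, GBM1 stem-like cells at 3 × 10^3/well, overnight at 37 °C; compound exposure lasted 96 h without interruption, vehicle 0.2% DMSO.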

[2] = tested on: HCT116 p53+/+
How it was run: as §1

[3] = tested on: DLD-1
How it was run: as §1

[4] = tested on: BxPC3
How it was run: as §1

[5] = tested on: MiaPaCa2
How it was run: as §1

[6] = tested on: HCT116 p53-/-
How it was run: as §1

[7] = tested on: A549
How it was run: as §1

O=S(=O)(O)O.[Zn+2].[Zn+2].[Zn+2].c1ccc(-c2csc(NCCN(CCNc3nc(-c4ccccn4)cs3)CCNc3nc(-c4ccccn4)cs3)n2)nc1.c1ccc(-c2csc(NCCN(CCNc3nc(-c4ccccn4)cs3)CCNc3nc(-c4ccccn4)cs3)n2)nc1 [[L2Zn3(SO4)]4+]
IC50 ([1]; MCF10A non-cancer, read-out: Mean IC50 values): 15.2 µM
IC50 ([1]; MCF10A, mean of replicates, read-out: Mean IC50): 15.2 µM
IC50 ([1]; MCF10A, single replicate, read-out: IC50 values for each replicate): 18.5 µM and 11.3 µM (2×) and 19.7 µM
Relative potency (+ anion to no anion), Ratio + anion:no anion ([1]; ratio of IC50, MCF10A): 0.09
IC50 ([2]; HCT116 p53+/+, mean of replicates, read-out: Mean IC50): 0.066 µM
IC50 ([2]; HCT116 p53+/+, read-out: Mean IC50 values): 0.066 µM
IC50 ([2]; HCT116 p53+/+, single replicate, read-out: IC50 values for each replicate): 0.063 µM and 0.074 µM and 0.062 µM
Selectivity index (ARPE19) ([2]; IC50 ARPE-19 / IC50 HCT116 p53+/+): 2564.70
Selectivity index (MCF10A) ([2]; IC50 MCF10A / IC50 HCT116 p53+/+): 230.73
Relative potency (+ anion to no anion), Ratio + anion:no anion ([2]; ratio of IC50, HCT116 p53+/+): 0.14
Selectivity indices relative to ARPE-19, Ratio + anion:no anion ([2]; ratio of SI (ARPE-19), HCT116 p53+/+): 7.600
Selectivity indices relative to MCF10A, Ratio + anion:no anion ([2]; ratio of SI (MCF 10A), HCT116 p53+/+): 0.665
IC50 ([3]; DLD-1, mean of replicates, read-out: Mean IC50): 0.338 µM
IC50 ([3]; DLD-1, read-out: Mean IC50 values): 0.338 µM
Selectivity index (ARPE19) ([3]; IC50 ARPE-19 / IC50 DLD-1): 500.80
Selectivity index (MCF10A) ([3]; IC50 MCF10A / IC50 DLD-1): 45.05
Relative potency (+ anion to no anion), Ratio + anion:no anion ([3]; ratio of IC50, DLD-1): 1.99
Selectivity indices relative to ARPE-19, Ratio + anion:no anion ([3]; ratio of SI (ARPE-19), DLD-1): 0.541
Selectivity indices relative to MCF10A, Ratio + anion:no anion ([3]; ratio of SI (MCF 10A), DLD-1): 0.047
IC50 ([4]; BXPC3, mean of replicates, read-out: Mean IC50): 0.599 µM
IC50 ([4]; BXPC3, read-out: Mean IC50 values): 0.599 µM
IC50 ([4]; BXPC3, single replicate, read-out: IC50 values for each replicate): 0.668 µM and 0.428 µM and 0.705 µM and 0.728 µM and 0.465 µM
Selectivity index (ARPE19) ([4]; IC50 ARPE-19 / IC50 BXPC3): 282.59
Selectivity index (MCF10A) ([4]; IC50 MCF10A / IC50 BXPC3): 25.42
Relative potency (+ anion to no anion), Ratio + anion:no anion ([4]; ratio of IC50, BXPC3): 1.87
Selectivity indices relative to ARPE-19, Ratio + anion:no anion ([4]; ratio of SI (ARPE-19), BXPC3): 0.575
Selectivity indices relative to MCF10A, Ratio + anion:no anion ([4]; ratio of SI (MCF 10A), BXPC3): 0.050
Selectivity index (ARPE19) ([5]; IC50 ARPE-19 / IC50 MiaPaCa2): 3.29
Selectivity index (MCF10A) ([5]; IC50 MCF10A / IC50 MiaPaCa2): 0.30
IC50 ([5]; MiaPaCa2, mean of replicates, read-out: Mean IC50): 51.5 µM
IC50 ([5]; MiaPaCa2, read-out: Mean IC50 values): 51.5 µM
IC50 ([5]; MiaPaCa2, single replicate, read-out: IC50 values for each replicate): 52.6 µM and 36.7 µM and 60.8 µM and 55.8 µM
Relative potency (+ anion to no anion), Ratio + anion:no anion ([5]; ratio of IC50, MiaPaCa2): 0.87
Selectivity indices relative to ARPE-19, Ratio + anion:no anion ([5]; ratio of SI (ARPE-19), MiaPaCa2): 1.236
Selectivity indices relative to MCF10A, Ratio + anion:no anion ([5]; ratio of SI (MCF 10A), MiaPaCa2): 0.108
IC50 ([6]; HCT116 p53-/-, mean of replicates, read-out: Mean IC50): 0.061 µM
IC50 ([6]; HCT116 p53-/-, read-out: Mean IC50 values): 0.061 µM
IC50 ([6]; HCT116 p53-/-, single replicate, read-out: IC50 values for each replicate): 0.059 µM and 0.064 µM and 0.061 µM
Selectivity index (ARPE19) ([6]; IC50 ARPE-19 / IC50 HCT116 p53-/-): 2774.92
Selectivity index (MCF10A) ([6]; IC50 MCF10A / IC50 HCT116 p53-/-): 249.64
Relative potency (+ anion to no anion), Ratio + anion:no anion ([6]; ratio of IC50, HCT116 p53-/-): 0.85
Selectivity indices relative to ARPE-19, Ratio + anion:no anion ([6]; ratio of SI (ARPE-19), HCT116 p53-/-): 1.271
Selectivity indices relative to MCF10A, Ratio + anion:no anion ([6]; ratio of SI (MCF 10A), HCT116 p53-/-): 0.111
IC50 ([7]; A549, mean of replicates, read-out: Mean IC50): 0.582 µM
IC50 ([7]; A549, read-out: Mean IC50 values): 0.582 µM
IC50 ([7]; A549, single replicate, read-out: IC50 values for each replicate): 0.263 µM and 0.588 µM and 0.773 µM and 0.704 µM
Selectivity index (ARPE19) ([7]; IC50 ARPE-19 / IC50 A549): 290.84
Selectivity index (MCF10A) ([7]; IC50 MCF10A / IC50 A549): 26.16
Relative potency (+ anion to no anion), Ratio + anion:no anion ([7]; ratio of IC50, A549): 1.44
Selectivity indices relative to ARPE-19, Ratio + anion:no anion ([7]; ratio of SI (ARPE-19), A549): 0.745
Selectivity indices relative to MCF10A, Ratio + anion:no anion ([7]; ratio of SI (MCF 10A), A549): 0.065

Source: paper PMC8222254, “Self-assembly of an anion receptor with metal-dependent kinase inhibition and potent in vitro anti-cancer properties” (Nature Communications, 2021)
